Patent US6562833B1 (priority 1998, dated 2003)

Assays:
Type in all cases: in vivo
Puccinia recondita = assay: Comparative Experiment 2 - curative activity against Puccinia recondita on wheat (wheat leaf rust); conditions: potted wheat seedlings c.v. Kanzler, aqueous 250 ppm preparation sprayed the day after inoculation, assessed after 7 days, untreated plants 100% infected
Description: (§1) The active ingredients were formulated separately or jointly as a 10% emulsion in a mixture of 70% by weight of cyclohexanone, 20% by weight of Nekanil® LN (Lutensol® AP6, wetting agent having emulsifying and dispersant action based on ethoxylated alkylphenols) and 10% by weight of Wettol® EM (nonionic emulsifier based on ethoxylated castor oil) and diluted with water to give the desired concentration.
Leaves of potted wheat seedlings c.v. “Kanzler” were dusted with spores of wheat leaf rust (Puccinia recondita). Thereafter, the pots were kept in a chamber of high atmospheric humidity (90 to 95%), at 20 to 22° C. for 24 hours. During this time, the spores germinated and the germ tubes penetrated into the leaf tissue. The next day, the infected plants were sprayed to runoff point with an aqueous 250 ppm preparation of active compound which had been made up from a stock solution consisting of 10% of active compound, 63% of cyclohexanone and 27% of emulsifier. After the spraycoating had dried on, the test plants were cultivated in a greenhouse at 20-22° C. and 65-70% relative atmospheric humidity for 7 days. The extent of the rust fungus development on the leaves was then determined.

Plasmopara viticola [1] = assay: Comparative Experiment 1 - activity against Plasmopara viticola on grapevine leaves (persistency, 500 ppm); conditions: potted grapevines c.v. Müller-Thurgau; aqueous 500 ppm preparation sprayed to runoff; inoculated 7 days after treatment; untreated plants 85% infected
Description: as §1
Leaves of potted grapevines c.v. “Müller-Thurgau” were sprayed to runoff point with an aqueous 500 ppm preparation of active compound which had been made up from a stock solution comprising 10% of active compound, 63% of cyclohexanone and 27% of emulsifier. To assess the persistency of the substances, the plants were kept for 7 days in a greenhouse after the spray-coating had dried off. Only then were the leaves inoculated with an aqueous zoospore suspension of Plasmopara viticola. The grapevines were then initially kept in a water vapor-saturated chamber at 24° C. for 48 hours and then in a greenhouse at 20-30° C. for 5 days. After this period of time, the plants were once more kept in a humid chamber for 16 hours to promote sporangiophore eruption. The extent of the infection on the undersides of the leaves was then determined visually.

Plasmopara viticola [2] = assay: Comparative Experiment 4 - activity against Plasmopara viticola on grapevine leaves (persistency, 250 ppm); conditions: potted grapevines c.v. Müller-Thurgau; aqueous 250 ppm preparation sprayed to runoff; inoculated 7 days after treatment; untreated plants 85% infected
Description: as §1
Leaves of potted grapevines c.v. “Müller-Thurgau” were sprayed to runoff point with an aqueous 250 ppm preparation of active compound which had been made up from a stock solution comprising 10% of active compound, 63% of cyclohexanone and 27% of emulsifier. To assess the persistency of the substances, the plants were kept for 7 days in a greenhouse after the spray-coating had dried off. Only then were the leaves inoculated with an aqueous zoospore suspension of Plasmopara viticola. The grapevines were then initially kept in a water vapor-saturated chamber at 24° C. for 48 hours and then in a greenhouse at 20-30° C. for 5 days. After this period of time, the plants were once more kept in a humid chamber for 16 hours to promote sporangiophore eruption. The extent of the infection on the undersides of the leaves was then determined visually.

Pyricularia oryzae = conditions: potted rice seedlings c.v. TaiNong 67; protective, aqueous 250 ppm preparation; inoculated the next day; assessed after 6 days; untreated plants 90% infected

SMILES	infection (extent of the rust fungus development on the leaves) (Puccinia recondita)	infection (extent of the infection on the undersides of the leaves, determined visually) (Plasmopara viticola [1])	infection (extent of the infection on the undersides of the leaves, determined visually) (Plasmopara viticola [2])	infection (extent of the development of the disease on the leaves, determined visually) (Pyricularia oryzae)
Cc1cc(C#N)nc(Nc2ccccc2)n1 [active compound A]	100%	50%		
CON=Cc1nc(Nc2ccccc2)nc(C)c1C [I.62, 5,6-Dimethyl-4-(N-methoxyimino)methyl-2-(N-phenylamino)pyrimidine]			10%	
Cc1nc(Nc2ccccc2)nc(C#N)c1C [I.9, 4-Cyano-5,6-dimethyl-2-(phenylamino)pyrimidine]	30%	5%		
Cc1cc(C(F)(F)F)nc(Nc2ccccc2)n1 [active compound B]				80%
Cc1nc(Nc2ccccc2)nc(C(F)(F)F)c1C [I.18]				15%
CON=Cc1cc(C)nc(Nc2ccccc2)n1 [active compound C]			60%	
